Experimental findings from ChEMBL document CHEMBL1158888, “New bioactive rosigenin analogues and aromatic polyketide metabolites from the freshwater aquatic fungus Massarina tunicata” (2003) are described below.

Calls of active or inactive are those of the source. No cut-off for these calls is given here.

The subject of assay [1] is Bacillus subtilis. As to the kind of experiment: Antimicrobial activity against Bacillus subtilis ATCC 6051 at 200 ug/ml by standard disk assay. To be noted: read-out: IZ. It is filed as functional.
Assay [2] relates to Bacillus subtilis. The experiment in a line: Antimicrobial activity against Bacillus subtilis ATCC 6051 at 200 ug/disk by standard disk assay.
A further assay deals with Staphylococcus aureus. The experiment in a line: Antimicrobial activity against Staphylococcus aureus ATCC 29213 at 200 ug/ml by standard disk assay. Format: functional. To be noted: read-out: IZ.

As to `C#C[C@H](O)COc1ccc(C(=O)O)cc1`, the zone of inhibition at 200 µg/mL in the assay on Bacillus subtilis [1] came to 15 mm. Regarding `C=C1OC(=O)[C@]2([C@H](C)CCC(=O)[C@@H]2O)[C@H]1O`, the outcome in the assay with Bacillus subtilis [2] was inactive. Turning to `C=C1OC(=O)[C@]2([C@H](C)C=C[C@H](O)[C@@H]2O)[C@@H]1O` [MASSARIGENIN A], the zone of inhibition at 200 µg/mL with Bacillus subtilis [1] was found to be 11 mm. `C=C1OC(=O)[C@]2([C@H](C)C=CC(=O)[C@@H]2O)[C@H]1O` [MASSARIGENIN C]: the zone of inhibition at 200 µg/mL in the assay on Bacillus subtilis [1] was 9 mm. The same measure, in the same setting: the result for `C=C1OC(=O)[C@]2([C@H](C)C=CC(=O)[C@H]2O)[C@H]1O` [MASSARIGENIN D] reads 14 mm. On to `COc1c(C)cc(O)c(C(=O)c2c(O)ccc3c2OC(C)(C)C=C3)c1C=O` [MASSARININ A], for which the zone of inhibition at 200 µg/mL turned out to be 17 mm in the assay with Bacillus subtilis [1] and 7 mm in the assay with Staphylococcus aureus.

As for `C[C@H]1CC(=O)c2c(coc2-c2c(O)ccc3c2OC(C)(C)C=C3)[C@@H]1O` [MASSARININ B], the zone of inhibition at 200 µg/mL in the assay on Bacillus subtilis [1] is 23 mm; with Staphylococcus aureus, 12 mm.
